Laboratory results taken from patent publication US20150176022A1, “HERBICIDE-RESISTANT SUNFLOWER PLANTS, POLYNUCLEOTIDES ENCODING HERBICIDE=RESISTANT ACETO HYDROXY ACID SYNTHASE LARGE SUBUNIT PROTEINS, AND METHODS OF USE” (priority 2013, published 2015).

Experiments:
Assay in all cases: Greenhouse whole-plant imazapir dose response (Example 8)
Assay type in all cases: in vivo, Helianthus annuus
[1] = system: sunflower TH12 (Restorer Line, A122T); settings: 14 DAT
Procedure: (§1) A greenhouse study was conducted to quantify and contrast the imazapir sensitivity of the mutants A122T and A205V in different genetic backgrounds at the whole plant level in sunflower. Seeds of the different sunflower lines that were used in this study were obtained under field conditions.
(§2) Seeds were sown in Petri dishes and, after germination, plantlets were transplanted to pots of 10 cm of diameter in a potting media consisting of equal parts of vermiculite, soil and sand. Plants were grown in a greenhouse under natural light conditions supplemented with 400 W sodium halide lamps to provide a 16 hrs daylength. Day/night temperatures were 25 and 20° C., respectively. At the V2 stage 10 plants of each genotype were randomly assigned to each treatment consisting of […] imazapir doses (0, 40, 80, 160, 240, 320, 400 and 480 g ai/ha), and a zero-time biomass determination. Experiment was arranged as a randomized block design with a full factorial (sunflower line×treatment) arrangement of treatments and 10 replications.
(§3) On the day of herbicide application ten plants of each genotype were cut at the cotyledonal node and dried at 60° C. for 48 hrs zero-time for dried weight determination. […] Height was determined as the distance between the cotyledonal node and the apex of each plant. For root biomass determination, each plant was taken from the pot and the potting media was washed out from the roots. Above ground biomass data from each line were converted to biomass accumulation after application by subtracting the appropriate average zero-time biomass from each sample. Dry biomass data were converted to percentages of the untreated control plants within each line to allow direct comparisons between groups.

[2] = system: sunflower TH1 (Hybrid, A205V); settings: 14 DAT
Procedure: as §1, §2, §3

[3] = system: sunflower GM1606 (Manteiner Line, A122T); settings: 14 DAT
Procedure: as §1, §2, §3

[4] = system: sunflower TH10 (Restorer Line, A205V); settings: 14 DAT
Procedure: as §1, §2, §3

[5] = system: sunflower GIM 5-6 (Restorer Line, A122T); settings: GIM5-6, 14 DAT
Procedure: as §1, §2, §3

SMILES: CC(C)C1(C)N=C(c2ncccc2C(=O)O)NC1=O (stereo not drawn) [imazapir, imazapyr]
- Phytotoxicity Index ([1]; 0.5× (40 g ai/ha)): 0.0
- biomass accumulation (dry biomass, % of untreated) ([1]; 0.5× (40 g ai/ha)): 100.0%
- plant height (% of untreated) ([1]; 0.5× (40 g ai/ha)): 100.0%
- root dry weight (% of untreated) ([1]; 0.5× (40 g ai/ha)): 99.4%
- Phytotoxicity Index ([1]; 1× (80 g ai/ha)): 0.0
- biomass accumulation (dry biomass, % of untreated) ([1]; 1× (80 g ai/ha)): 99.1%
- plant height (% of untreated) ([1]; 1× (80 g ai/ha)): 100.0%
- root dry weight (% of untreated) ([1]; 1× (80 g ai/ha)): 100%
- Phytotoxicity Index ([1]; 2× (160 g ai/ha)): 0.0
- biomass accumulation (dry biomass, % of untreated) ([1]; 2× (160 g ai/ha)): 97.0%
- plant height (% of untreated) ([1]; 2× (160 g ai/ha)): 101.8%
- root dry weight (% of untreated) ([1]; 2× (160 g ai/ha)): 100%
- Phytotoxicity Index ([1]; 3× (240 g ai/ha)): 0.0
- biomass accumulation (dry biomass, % of untreated) ([1]; 3× (240 g ai/ha)): 96.1%
- plant height (% of untreated) ([1]; 3× (240 g ai/ha)): 97.0%
- root dry weight (% of untreated) ([1]; 3× (240 g ai/ha)): 100.0%
- Phytotoxicity Index ([1]; 4× (320 g ai/ha)): 0.0
- biomass accumulation (dry biomass, % of untreated) ([1]; 4× (320 g ai/ha)): 84.3%
- plant height (% of untreated) ([1]; 4× (320 g ai/ha)): 92.1%
- root dry weight (% of untreated) ([1]; 4× (320 g ai/ha)): 74.5%
- Phytotoxicity Index ([1]; 5× (400 g ai/ha)): 0.0
- biomass accumulation (dry biomass, % of untreated) ([1]; 5× (400 g ai/ha)): 77.5%
- plant height (% of untreated) ([1]; 5× (400 g ai/ha)): 84.8%
- root dry weight (% of untreated) ([1]; 5× (400 g ai/ha)): 65.0%
- Phytotoxicity Index ([1]; 6× (480 g ai/ha)): 0.5
- biomass accumulation (dry biomass, % of untreated) ([1]; 6× (480 g ai/ha)): 70.7%
- plant height (% of untreated) ([1]; 6× (480 g ai/ha)): 79.8%
- root dry weight (% of untreated) ([1]; 6× (480 g ai/ha)): 57.8%
- Phytotoxicity Index ([2]; 0.5× (40 g ai/ha)): 0
- biomass accumulation (dry biomass, % of untreated) ([2]; 0.5× (40 g ai/ha)): 95.0%
- plant height (% of untreated) ([2]; 0.5× (40 g ai/ha)): 99.5%
- root dry weight (% of untreated) ([2]; 0.5× (40 g ai/ha)): 79.4%
- Phytotoxicity Index ([2]; 1× (80 g ai/ha)): 0
- biomass accumulation (dry biomass, % of untreated) ([2]; 1× (80 g ai/ha)): 89.6%
- plant height (% of untreated) ([2]; 1× (80 g ai/ha)): 99.5%
- root dry weight (% of untreated) ([2]; 1× (80 g ai/ha)): 70.7%
- Phytotoxicity Index ([2]; 2× (160 g ai/ha)): 1.8
- biomass accumulation (dry biomass, % of untreated) ([2]; 2× (160 g ai/ha)): 75.5%
- plant height (% of untreated) ([2]; 2× (160 g ai/ha)): 78.6%
- root dry weight (% of untreated) ([2]; 2× (160 g ai/ha)): 69.6%
- Phytotoxicity Index ([2]; 3× (240 g ai/ha)): 6.4
- biomass accumulation (dry biomass, % of untreated) ([2]; 3× (240 g ai/ha)): 60.4%
- plant height (% of untreated) ([2]; 3× (240 g ai/ha)): 48.4%
- root dry weight (% of untreated) ([2]; 3× (240 g ai/ha)): 42.3%
- Phytotoxicity Index ([2]; 4× (320 g ai/ha)): 8.0
- biomass accumulation (dry biomass, % of untreated) ([2]; 4× (320 g ai/ha)): 46.5%
- plant height (% of untreated) ([2]; 4× (320 g ai/ha)): 28.9%
- root dry weight (% of untreated) ([2]; 4× (320 g ai/ha)): 38.6%
- Phytotoxicity Index ([2]; 5× (400 g ai/ha)): 8.9
- biomass accumulation (dry biomass, % of untreated) ([2]; 5× (400 g ai/ha)): 38.9%
- plant height (% of untreated) ([2]; 5× (400 g ai/ha)): 25.3%
- root dry weight (% of untreated) ([2]; 5× (400 g ai/ha)): 34.7%
- Phytotoxicity Index ([2]; 6× (480 g ai/ha)): 9.0
- biomass accumulation (dry biomass, % of untreated) ([2]; 6× (480 g ai/ha)): 33.9%
- plant height (% of untreated) ([2]; 6× (480 g ai/ha)): 27.1%
- root dry weight (% of untreated) ([2]; 6× (480 g ai/ha)): 23.1%
- biomass accumulation (dry biomass, % of untreated) ([3]; 0.5× (40 g ai/ha)): 100.0%
- plant height (% of untreated) ([3]; 0.5× (40 g ai/ha)): 97.0%
- root dry weight (% of untreated) ([3]; 0.5× (40 g ai/ha)): 100%
- biomass accumulation (dry biomass, % of untreated) ([3]; 1× (80 g ai/ha)): 100.0%
- plant height (% of untreated) ([3]; 1× (80 g ai/ha)): 95.7%
- root dry weight (% of untreated) ([3]; 1× (80 g ai/ha)): 100.0%
- biomass accumulation (dry biomass, % of untreated) ([3]; 2× (160 g ai/ha)): 97.6%
- plant height (% of untreated) ([3]; 2× (160 g ai/ha)): 95.2%
- root dry weight (% of untreated) ([3]; 2× (160 g ai/ha)): 92.5%
- biomass accumulation (dry biomass, % of untreated) ([3]; 3× (240 g ai/ha)): 95.4%
- plant height (% of untreated) ([3]; 3× (240 g ai/ha)): 95.7%
- root dry weight (% of untreated) ([3]; 3× (240 g ai/ha)): 85.2%
- biomass accumulation (dry biomass, % of untreated) ([3]; 4× (320 g ai/ha)): 90.5%
- plant height (% of untreated) ([3]; 4× (320 g ai/ha)): 94.1%
- root dry weight (% of untreated) ([3]; 4× (320 g ai/ha)): 87.0%
- biomass accumulation (dry biomass, % of untreated) ([3]; 5× (400 g ai/ha)): 85.3%
- plant height (% of untreated) ([3]; 5× (400 g ai/ha)): 94.3%
- root dry weight (% of untreated) ([3]; 5× (400 g ai/ha)): 88.1%
- biomass accumulation (dry biomass, % of untreated) ([3]; 6× (480 g ai/ha)): 83.0%
- plant height (% of untreated) ([3]; 6× (480 g ai/ha)): 91.4%
- root dry weight (% of untreated) ([3]; 6× (480 g ai/ha)): 69.5%
- Phytotoxicity Index ([4]; 0.5× (40 g ai/ha)): 0
- biomass accumulation (dry biomass, % of untreated) ([4]; 0.5× (40 g ai/ha)): 99.2%
- plant height (% of untreated) ([4]; 0.5× (40 g ai/ha)): 99.2%
- root dry weight (% of untreated) ([4]; 0.5× (40 g ai/ha)): 90.3%
- Phytotoxicity Index ([4]; 1× (80 g ai/ha)): 0
- biomass accumulation (dry biomass, % of untreated) ([4]; 1× (80 g ai/ha)): 85.0%
- plant height (% of untreated) ([4]; 1× (80 g ai/ha)): 98.1%
- root dry weight (% of untreated) ([4]; 1× (80 g ai/ha)): 69.9%
- Phytotoxicity Index ([4]; 2× (160 g ai/ha)): 3.1
- biomass accumulation (dry biomass, % of untreated) ([4]; 2× (160 g ai/ha)): 58.1%
- plant height (% of untreated) ([4]; 2× (160 g ai/ha)): 63.6%
- root dry weight (% of untreated) ([4]; 2× (160 g ai/ha)): 41.3%
- Phytotoxicity Index ([4]; 3× (240 g ai/ha)): 3.9
- biomass accumulation (dry biomass, % of untreated) ([4]; 3× (240 g ai/ha)): 48.1%
- plant height (% of untreated) ([4]; 3× (240 g ai/ha)): 51.9%
- root dry weight (% of untreated) ([4]; 3× (240 g ai/ha)): 42.8%
- Phytotoxicity Index ([4]; 4× (320 g ai/ha)): 5.9
- biomass accumulation (dry biomass, % of untreated) ([4]; 4× (320 g ai/ha)): 28.8%
- plant height (% of untreated) ([4]; 4× (320 g ai/ha)): 27.5%
- root dry weight (% of untreated) ([4]; 4× (320 g ai/ha)): 22.3%
- Phytotoxicity Index ([4]; 5× (400 g ai/ha)): 6.9
- biomass accumulation (dry biomass, % of untreated) ([4]; 5× (400 g ai/ha)): 27.4%
- plant height (% of untreated) ([4]; 5× (400 g ai/ha)): 28.0%
- root dry weight (% of untreated) ([4]; 5× (400 g ai/ha)): 22.7%
- Phytotoxicity Index ([4]; 6× (480 g ai/ha)): 6.7
- biomass accumulation (dry biomass, % of untreated) ([4]; 6× (480 g ai/ha)): 24.9%
- plant height (% of untreated) ([4]; 6× (480 g ai/ha)): 29.3%
- root dry weight (% of untreated) ([4]; 6× (480 g ai/ha)): 16.4%
- biomass accumulation (dry biomass, % of untreated) ([5]; 0.5× (40 g ai/ha)): 100.0%
- plant height (% of untreated) ([5]; 0.5× (40 g ai/ha)): 100.0%
- root dry weight (% of untreated) ([5]; 0.5× (40 g ai/ha)): 100%
- biomass accumulation (dry biomass, % of untreated) ([5]; 1× (80 g ai/ha)): 96.4%
- plant height (% of untreated) ([5]; 1× (80 g ai/ha)): 100.0%
- root dry weight (% of untreated) ([5]; 1× (80 g ai/ha)): 88.0%
- biomass accumulation (dry biomass, % of untreated) ([5]; 2× (160 g ai/ha)): 97.7%
- plant height (% of untreated) ([5]; 2× (160 g ai/ha)): 99.1%
- root dry weight (% of untreated) ([5]; 2× (160 g ai/ha)): 90.0%
- biomass accumulation (dry biomass, % of untreated) ([5]; 3× (240 g ai/ha)): 95.8%
- plant height (% of untreated) ([5]; 3× (240 g ai/ha)): 98.1%
- root dry weight (% of untreated) ([5]; 3× (240 g ai/ha)): 98.0%
- biomass accumulation (dry biomass, % of untreated) ([5]; 4× (320 g ai/ha)): 90.8%
- plant height (% of untreated) ([5]; 4× (320 g ai/ha)): 91.0%
- root dry weight (% of untreated) ([5]; 4× (320 g ai/ha)): 80.0%
- biomass accumulation (dry biomass, % of untreated) ([5]; 5× (400 g ai/ha)): 81.9%
- plant height (% of untreated) ([5]; 5× (400 g ai/ha)): 94.3%
- root dry weight (% of untreated) ([5]; 5× (400 g ai/ha)): 80.0%
- biomass accumulation (dry biomass, % of untreated) ([5]; 6× (480 g ai/ha)): 78.0%
- plant height (% of untreated) ([5]; 6× (480 g ai/ha)): 85.8%
- root dry weight (% of untreated) ([5]; 6× (480 g ai/ha)): 65.8%
